Data from patent US9783537B2, “3-(4-ethylnylphenyl) pyridopyrimidinone compounds and process for preparation thereof useful as potential anticancer agents” (Council of Scientific & Industrial Research, priority 2013, dated 2017).
Read-outs that look alike come from different tables or passages of the source.

How the values were obtained:
[1] = tested on: MALME-3M; test: SRB 48 h growth assay, Melanoma MALME-3M; assay type: cell-based, human; settings: for GI50 / CC50: Homo sapiens; for CC50: read-out: Log10 LC50 (converted)
[2] = tested on: HCT-15; test: SRB 48 h growth assay, Colon HCT-15; assay type: cell-based, human; settings: HCT-15, Colon; for GI50 / CC50: Homo sapiens; for CC50: read-out: Log10 LC50 (converted)
[3] = tested on: MOLT-4; test: SRB 48 h growth assay, Leukemia MOLT-4; assay type: cell-based, human; settings: MOLT-4, Leukemia; for GI50 / CC50: Homo sapiens; for CC50: read-out: Log10 LC50 (converted)
[4] = tested on: HT-29; test: SRB 48 h growth assay, Colon HT-29; assay type: cell-based, human; settings: HT-29, Colon; for GI50 / CC50: Homo sapiens; for CC50: read-out: Log10 LC50 (converted)
[5] = tested on: A498; test: SRB 48 h growth assay, Renal A498; assay type: cell-based, human; settings: for GI50 / CC50: Homo sapiens; for CC50: read-out: Log10 LC50 (converted)
[6] = tested on: eight renal cancer cell line (786-0, A498, ACHN, CAKI-1, SN12C, TK-10, UO-31 and RXF 393); test: in vitro anticancer activity, renal panel; assay type: cell-based; settings: Homo sapiens; eight renal cancer cell lines, exposure at least 48 h; read-out: in vitro anticancer activity, range over panel
[7] = tested on: SF-539; test: SRB 48 h growth assay, CNS SF-539; assay type: cell-based, human; settings: SF-539, CNS; for GI50 / CC50: Homo sapiens; for CC50: read-out: Log10 LC50 (converted)
[8] = tested on: IGROV1; test: SRB 48 h growth assay, Ovarian IGROV1; assay type: cell-based, human; settings: for GI50 / CC50: Homo sapiens; for CC50: IGROV-1, read-out: Log10 LC50 (converted)
[9] = tested on: COLO 205; test: SRB 48 h growth assay, Colon COLO 205; assay type: cell-based, human; settings: COLO 205, Colon; for GI50 / CC50: Homo sapiens; for CC50: read-out: Log10 LC50 (converted)
[10] = tested on: CAKI-1; test: SRB 48 h growth assay, Renal CAKI-1; assay type: cell-based, human; settings: CAKI-1, Renal; for GI50 / CC50: Homo sapiens; for CC50: read-out: Log10 LC50 (converted)
[11] = tested on: SR; test: SRB 48 h growth assay, Leukemia SR; assay type: cell-based, human; settings: for GI50 / CC50: Homo sapiens; for CC50: read-out: Log10 LC50 (converted)
[12] = tested on: NCI-H460; test: SRB 48 h growth assay, Non-small Cell Lung NCI-H460; assay type: cell-based, human; settings: for GI50 / LC50: Homo sapiens; for LC50: read-out: Log10 LC50 (converted)
[13] = tested on: U251; test: SRB 48 h growth assay, CNS U251; assay type: cell-based, human; settings: for GI50 / CC50: Homo sapiens; for CC50: U-251, read-out: Log10 LC50 (converted)
[14] = tested on: UO-31; test: SRB 48 h growth assay, Renal UO-31; assay type: cell-based, human; settings: UO-31, Renal; for GI50 / CC50: Homo sapiens; for CC50: read-out: Log10 LC50 (converted)
[15] = read-out: Growth Inhibition GI50
[16] = read-out: Log10 GI50 (converted)
[17] = IGROV-1, read-out: Growth Inhibition GI50
[18] = IGROV-1, read-out: Log10 GI50 (converted)
[19] = U-251, read-out: Growth Inhibition GI50
[20] = U-251, read-out: Log10 GI50 (converted)

## C#Cc1ccc(-n2c(/C=C/c3ccc(C(F)(F)F)cc3)nc3ncccc3c2=O)cc1 [4c, (E)-3-(4-Ethynylphenyl)-2-(4-(trifluoromethyl)styryl)pyrido[2,3-d]pyrimidin-4(3H)-one]
[1]
  Log10 TGI50: −5.45
  CC50: 7.76 µM
[1]; [15]
  GI50: 1.64 µM
[1]; [16]
  GI50: 1.66 µM
[2]
  Log10 TGI50: −5.43
  CC50: 7.76 µM
[2]; [15]
  GI50: 1.74 µM
[2]; [16]
  GI50: 1.74 µM
[3]; [15]
  GI50: 3.01 µM
[3]; [16]
  GI50: 3.02 µM
[3]
  CC50: > 100 µM
  Log10 TGI50: −5.06
[4]
  Log10 TGI50: −5.40
  CC50: 7.76 µM
[4]; [15]
  GI50: 2.03 µM
[4]; [16]
  GI50: 2.04 µM
[5]
  Log10 TGI50: −5.24
  CC50: 24 µM
[5]; [15]
  GI50: 2.34 µM
[5]; [16]
  GI50: 2.4 µM
[6]
  GI50: 1.69 to 4.08 µM
[7]; [15]
  GI50: 1.68 µM
[7]; [16]
  GI50: 1.66 µM
[7]
  CC50: 6.03 µM
  Log10 TGI50: −5.50
[8]
  Log10 TGI50: −5.40
  CC50: 8.32 µM
[8]; [17]
  GI50: 1.96 µM
[8]; [18]
  GI50: 1.95 µM
[9]
  Log10 TGI50: −5.35
  CC50: 8.91 µM
[9]; [15]
  GI50: 2.23 µM
[9]; [16]
  GI50: 2.24 µM
[10]
  Log10 TGI50: −5.21
  CC50: > 100 µM
[10]; [15]
  GI50: 2.26 µM
[10]; [16]
  GI50: 2.24 µM
[11]
  Log10 TGI50: −5.09
  CC50: > 100 µM
[11]; [15]
  GI50: 2 µM
[11]; [16]
  GI50: 2 µM
[12]
  Log10 TGI50: −5.38
  LC50: 8.71 µM
[12]; [15]
  GI50: 1.98 µM
[12]; [16]
  GI50: 2 µM
[13]
  Log10 TGI50: −5.50
  CC50: 5.89 µM
[13]; [19]
  GI50: 1.67 µM
[13]; [20]
  GI50: 1.66 µM
[14]; [15]
  GI50: 1.43 µM
[14]; [16]
  GI50: 1.45 µM
[14]
  CC50: 9.33 µM
  Log10 TGI50: −5.44

## C#Cc1ccc(-n2c(/C=C/c3ccc4ccccc4c3)nc3ncccc3c2=O)cc1 [4s, (E)-3-(4-Ethynylphenyl)-2-(2-(naphthalen-2-yl)vinyl)pyrido[2,3-d]pyrimidin-4(3H)-one]
[1]
  Log10 TGI50: >−4.00
  CC50: > 100 µM
[1]; [15]
  GI50: 4.97 µM
[1]; [16]
  GI50: 6.31 µM
[2]
  Log10 TGI50: >−4.00
  CC50: > 100 µM
[2]; [15]
  GI50: 2.91 µM
[2]; [16]
  GI50: 2.88 µM
[3]; [15]
  GI50: 2 µM
[3]; [16]
  GI50: 2 µM
[3]
  CC50: > 100 µM
  Log10 TGI50: >−4.00
[4]
  Log10 TGI50: >−4.00
  CC50: > 100 µM
[4]; [15]
  GI50: 3.26 µM
[4]; [16]
  GI50: 3.24 µM
[5]
  Log10 TGI50: −5.23
  CC50: 5.89 µM
[5]; [15]
  GI50: 1.69 µM
[5]; [16]
  GI50: 1.7 µM
[6]
  GI50: 0.22 to 0.43 µM
[7]; [15]
  GI50: 2.91 µM
[7]; [16]
  GI50: 2.88 µM
[7]
  CC50: > 100 µM
  Log10 TGI50: >−4.00
[8]
  Log10 TGI50: >−4.00
  CC50: > 100 µM
[8]; [17]
  GI50: 2.92 µM
[8]; [18]
  GI50: 2.95 µM
[9]
  Log10 TGI50: −5.44
  CC50: 3.63 µM
[9]; [15]
  GI50: 2.06 µM
[9]; [16]
  GI50: 2.04 µM
[10]
  Log10 TGI50: >−4.31
  CC50: > 100 µM
[10]; [15]
  GI50: 2.98 µM
[10]; [16]
  GI50: 2.95 µM
[11]
  Log10 TGI50: >−4.00
  CC50: > 100 µM
[11]; [15]
  GI50: 1.4 µM
[11]; [16]
  GI50: 1.41 µM
[12]
  Log10 TGI50: >−4.00
  LC50: > 100 µM
[12]; [15]
  GI50: 2.88 µM
[12]; [16]
  GI50: 2.88 µM
[13]
  Log10 TGI50: >−4.00
  CC50: > 100 µM
[13]; [19]
  GI50: 3.69 µM
[13]; [20]
  GI50: 3.72 µM
[14]; [15]
  GI50: 3.11 µM
[14]; [16]
  GI50: 3.09 µM
[14]
  CC50: > 100 µM
  Log10 TGI50: >−4.00

## C#Cc1ccc(-n2c(/C=C/c3cc(OC)c(OC)c(OC)c3)nc3ncccc3c2=O)cc1 [4q, (E)-3-(4-Ethynylphenyl)-2-(3,4,5-trimethoxystyryl)pyrido[2,3-d]pyrimidin-4(3H)-one]
[1]
  Log10 TGI50: −4.15
  CC50: > 100 µM
[1]; [15]
  GI50: 9.74 µM
[1]; [16]
  GI50: 9.77 µM
[2]
  Log10 TGI50: >−4.00
  CC50: > 100 µM
[2]; [15]
  GI50: 5.58 µM
[2]; [16]
  GI50: 5.62 µM
[4]
  Log10 TGI50: −4.82
  CC50: > 100 µM
[4]; [15]
  GI50: 3.92 µM
[4]; [16]
  GI50: 3.89 µM
[5]
  Log10 TGI50: −5.01
  CC50: > 100 µM
[5]; [15]
  GI50: 2.63 µM
[5]; [16]
  GI50: 2.63 µM
[7]; [15]
  GI50: 4.57 µM
[7]; [16]
  GI50: 4.57 µM
[7]
  CC50: > 100 µM
  Log10 TGI50: −4.42
[8]
  Log10 TGI50: >−4.00
  CC50: > 100 µM
[8]; [17]
  GI50: 6.08 µM
[8]; [18]
  GI50: 6.03 µM
[9]
  Log10 TGI50: −4.92
  CC50: > 100 µM
[9]; [15]
  GI50: 3.19 µM
[9]; [16]
  GI50: 3.16 µM
[10]
  Log10 TGI50: >−4.00
  CC50: > 100 µM
[10]; [15]
  GI50: 6.07 µM
[10]; [16]
  GI50: 6.03 µM
[12]
  Log10 TGI50: −4.60
[12]; [15]
  GI50: 4.11 µM
[12]; [16]
  GI50: 4.07 µM
[13]
  Log10 TGI50: >−4.00
  CC50: > 100 µM
[13]; [19]
  GI50: 9.93 µM
[13]; [20]
  GI50: 10 µM
[14]; [15]
  GI50: 4.09 µM
[14]; [16]
  GI50: 4.07 µM
[14]
  CC50: > 100 µM
  Log10 TGI50: >−4.00
